{
  "source": "patent US20080025966A1",
  "about": "“Methods And Compositions For The Treatment Of Gastrointestinal disorders” (priority 2004, published 2008)",
  "key": {"[1]": {"tested_on": "chymotrypsin", "settings": "cited from earlier work"}, "[2]": {"target": "T1, chymotrypsin (Bos taurus, UniProt P00766)", "T1 construct": "purchased Sigma C6423", "assay": "Guanylin degradation assay (chymotrypsin digestion) read out in the T84 cGMP assay", "type": "biochemical, bovine", "settings": "T84 cells, FIG. 1", "description": "Since guanylin is susceptible to digestion by chymotrypsin, chymotrypsin activity can be assayed based on guanylin cleavage. […] From this stock, six (6) 500 μl aliquots were prepared in 2 ml Eppendorf tubes and labeled “Control”, “T0”, “T15”, “T30”, “T60”, and “T180”, with “T_” representing timepoints, in minutes. 5 μl of a 10 mM chymostatin (Sigma, C7268) stock (5 mg of chymostatin resuspended in 824 μl of DMSO) was added to the “Control” samples and all samples were incubated for 5 minutes at 30° C. Chymostatin inhibits chymotrypsin activity and this sample served as a negative control. Next, 20 μl of a chymotrypsin (Sigma, C6423) enzyme solution (0.01 mg/ml bovine chymotrypsin enzyme in 1 mM HCl, 2 mM Calcium Chloride) were added to the samples and mixed by inversion. Samples are incubated at 30° C. […] Determination of sensitivity to digestion by chymotrypsin was determined by LCMS analysis and by in vitro activity in the T84 cGMP assays described below.\nThe ability of guanylin to activate the intestinal GC-C receptor was assessed in an assay employing the T84 human colon carcinoma cell line (American Type Culture Collection (Bethesda, Md.). For the assays cells were grown to confluency in 24-well culture plates with a 1:1 mixture of Ham's F12 medium and Dulbecco's modified Eagle's medium (DMEM), supplemented with 5% fetal calf serum and were used at between passages 54 and 60. […]"}, "[3]": {"tested_on": "guanylin-induced intestinal fluid secretion", "settings": "suckling mouse model; chymostatin given with guanylin; cited from earlier work"}, "[4]": {"tested_on": "human HT-29/B6 cells", "settings": "cited from earlier work"}},
  "note": "No end group written: not given here.",
  "data": [
    {"compound": "CC(C)C[C@H](NC(=O)[C@@H](NC(=O)N[C@@H](Cc1ccccc1)C(=O)O)C1CCNC(=N)N1)C(=O)N[C@H](C=O)Cc1ccccc1", "note": "(stereo partly shown) [chymostatin]", "values": [
      {"measurement": "chymotrypsin-mediated inactivation of guanylin", "setting": "[1]", "result": "can be prevented"},
      {"measurement": "guanylin stimulated cGMP activity with chymotrypsin inhibitor present", "setting": "[2]; chymostatin added before chymotrypsin digestion of guanylin", "result": "retained"},
      {"measurement": "guanylin-induced intestinal fluid secretion", "setting": "[3]", "result": "required in order to observe guanylin-induced intestinal fluid secretion"}
    ]},
    {"compound": "Cc1c(O)cccc1C(=O)N[C@@H](CSc1ccccc1)[C@H](O)CN1C[C@H]2CCCC[C@H]2C[C@H]1C(=O)NC(C)(C)C", "note": "[nelfinavir, Nelfinavir]", "values": [
      {"measurement": "effect on the epithelial barrier", "setting": "[4]", "result": "impair the epithelial barrier"}
    ]},
    {"compound": "CC(C)c1nc(CN(C)C(=O)N[C@H](C(=O)N[C@@H](Cc2ccccc2)C[C@H](O)[C@H](Cc2ccccc2)NC(=O)OCc2cncs2)C(C)C)cs1", "note": "[ritonavir]", "values": [
      {"measurement": "effect on the epithelial barrier", "setting": "[4]", "result": "impair the epithelial barrier"}
    ]},
    {"compound": "CC(C)(C)NC(=O)[C@@H]1C[C@@H]2CCCC[C@@H]2CN1C[C@@H](O)[C@H](Cc1ccccc1)NC(=O)[C@H](CC(N)=O)NC(=O)c1ccc2ccccc2n1", "note": "[saquinavir, Saquinavir]", "values": [
      {"measurement": "effect on the epithelial barrier", "setting": "[4]", "result": "impair the epithelial barrier"}
    ]},
    {"compound": "guanylin: intestinal peptide of 15 amino acids, agonist of the guanylate cyclase (GC-C) receptor; Sigma G-116 (PGTCEICAYAACTGC; ends and bridges not checked; cysteine pairing not given here; UniProt Q02747 101-115, looked up)", "values": [
      {"measurement": "guanylin stimulated cGMP activity", "setting": "[2]; guanylin digested with chymotrypsin at 30° C., timepoints 0-180 min, no chymostatin", "result": "decreases over time"}
    ]}
  ]
}
